{"source": "paper PMC6759624", "about": "“Unraveling Heparan Sulfate Proteoglycan Binding Motif for Cancer Cell Selectivity” (Frontiers in Oncology, 2019)", "key": {"syndecan-4": {"tested_on": "syndecan-4", "assay": "SPR, NT4 binding to recombinant syndecan-4", "parameters": "species or system human", "details": "rHSPG over immobilized NT4", "experimental": "Experiments were performed on a Biacore T100 instrument (GE Healthcare). All materials were purchased from GE Healthcare unless otherwise specified. Full-length recombinant human HSPG were purchased from R&D Systems. Syndecan-3, syndecan-4, and glypican-3 were obtained from the mouse myeloma cell line (NS0), and glypican-4 was obtained from the Chinese Hamster Ovary cell line. The activity of syndecan-4, glypican-3, and glypican-4 was measured by the supplier as the ability of the immobilized protein to bind FGF-basic. The activity of syndecan-3 was measured by the supplier as the ability of the immobilized protein to inhibit adhesion of Saos-2 human osteosarcoma cells to human fibronectin.\nNT4-biotin was captured on a CM5 sensor chip where streptavidin had previously been immobilized by standard amine coupling. Briefly, the sensor chip surface was activated with a mixture of 0.1 M 1-ethyl-3(3-dimethylaminopropyl)-carbodiimide (EDC) and 0.4 M N-hydroxyl succinimide (NHS) for 7 min at a flow rate of 5 μl/min. Streptavidin was injected over the surface for 7 min, and finally, 1 M ethanolamine pH 8.5 was used to block any activated carboxyl groups. […]\nKinetics were analyzed with the Biacore T100 evaluation 1.1.1 software using the 1:1 Langmuir model to fit the curves."}, "[1]": {"tested_on": "HT-29 human colon adenocarcinoma", "assay": "NT4 binding to cells by flow cytometry", "assay_type": "cell-based", "details": "1 μM NT4-biotin", "experimental": "(§1) PANC-1 human pancreas adenocarcinoma, HT-29 human colon adenocarcinoma, and MCF-7 and MDA-MB-231 human breast adenocarcinoma cells were grown in the recommended American Type Culture Collection (ATCC) media, supplemented with 10% fetal calf serum, 200 μg/ml glutamine, 100 μg/ml streptomycin, 60 μg/ml penicillin, and maintained at 37°C, 5% CO2. Cell lines were purchased from ATCC, and cell profiling was analyzed to authenticate human cell lines (BMR Genomics).\n(§2) All experiments were performed using 2 × 10^5 cells in 96-well U-bottom plates. All dilutions were performed in phosphate-buffered saline (PBS), containing 5 mM EDTA and 1% bovine serum albumin (BSA).\n(§3) Cells were incubated with 1 μM NT4-biotin for 30 min at room temperature and then incubated with 1 μg/ml streptavidin–fluorescein isothiocyanate (FITC). For heparinase treatment, cells were incubated for 1 h at 37°C on the plates with 0.03 IU/ml heparinase I/III blend (Sigma Aldrich), and then harvested and incubated with the same concentration of heparinase in suspension for an additional hour at 37°C before NT4 staining. All experiments were repeated two times. P values were calculated using a two-tailed Student t-test and GraphPad Prism 5.0 software."}, "[2]": {"tested_on": "MCF-7 human breast adenocarcinoma", "assay": "NT4 binding to cells by flow cytometry", "assay_type": "cell-based", "details": "heparinase I/III blend 0.03 IU/ml, 1 h + 1 h at 37°C, 1 μM NT4-biotin, 30 min, room temperature, streptavidin–FITC, repeated two times", "experimental": "as §1, §2, §3"}, "[3]": {"tested_on": "MDA-MB-231 human breast adenocarcinoma", "assay": "NT4 binding to cells by flow cytometry", "assay_type": "cell-based", "details": "heparinase I/III blend 0.03 IU/ml, 1 h + 1 h at 37°C, 1 μM NT4-biotin, 30 min, room temperature, streptavidin–FITC, repeated two times", "experimental": "as §1, §2, §3"}, "[4]": {"tested_on": "PANC-1 human pancreas adenocarcinoma", "assay": "NT4 binding to cells by flow cytometry", "assay_type": "cell-based", "details": "1 μM NT4-biotin", "experimental": "as §1, §2, §3"}, "[5]": {"details": "ref [9], [10]; cited from earlier work", "source_text": "(§4) NT4 peptide is a tetrabranched peptide that binds to GAG chains of HSPG. […] NT4 binds cell lines of different human cancers, including colon adenocarcinoma, pancreas adenocarcinoma, bladder cancer, and breast cancer ([11], [12])."}, "PgsA-745 cells": {"tested_on": "PgsA-745 cells", "details": "Chinese hamster ovary cell mutant, deficient in xylosyltransferase; ref [13]; cited from earlier work", "source_text": "as §4"}, "[6]": {"tested_on": "cell lines of different human cancers, including colon adenocarcinoma, pancreas adenocarcinoma, bladder cancer, and breast cancer", "details": "ref [11], [12]; cited from earlier work", "source_text": "as §4"}, "[7]": {"details": "ref [13], [19] (b5); cited from earlier work", "source_text": "(§5) NT4 peptides can be conjugated with different functional units and can selectively deliver drugs for cancer therapy or transport tracers for tumor imaging ([11], [12], [15]–[18]). […] NT4 transports the chemotherapeutic moiety to the cancer cell membrane and, ultimately, into the cell ([14]–[16])."}, "breast cancer cells": {"tested_on": "breast cancer cells", "details": "ref [13], [20]; cited from earlier work", "source_text": "as §5, with “([14]–[16]). In animal models of cancer, the higher concentration of the cytotoxic drug at the site of the tumo ...” for “([14]–[16]).”"}, "[8]": {"tested_on": "pancreas adenocarcinoma cells", "details": "ref [13]; cited from earlier work", "source_text": "as §5, with “([14]–[16]). In animal models of cancer, the higher concentration of the cytotoxic drug at the site of the tumo ...” for “([14]–[16]).”"}, "cancer cells": {"tested_on": "cancer cells", "details": "ref [20]; cited from earlier work", "source_text": "NT4 is already known to have major effects on cancer cells, such as inhibition of migration and invasion of ECM induced by FGF ([20])."}}, "note": "Entries after “also recorded” stand apart in the source; their conditions may differ."}
{"substance": "(pyELYENKPRRPYIL)4K2K-beta-Ala [NT4]", "values": [{"measurement": "binding to syndecan-4", "setting": "syndecan-4", "value": "binds"}, {"measurement": "NT4 cell binding relative to other cell lines", "setting": "[1]; HT-29 (low sulfatase expression) versus MCF-7 and MDA-MB-231, flow cytometry", "value": "bind NT4 better than the others; also recorded: higher in cell lines with lower expression of sulfatases"}, {"measurement": "NT4 binding after heparinase treatment", "setting": "[1]; HT-29, heparinase I/III blend 0.03 IU/ml, 1 h + 1 h at 37°C, 30 min, room temperature, streptavidin–FITC, repeated two times", "value": "much lower than to control cells"}, {"measurement": "NT4 binding after heparinase treatment", "setting": "[2]", "value": "much lower than to control cells"}, {"measurement": "NT4 binding after heparinase treatment", "setting": "[3]", "value": "much lower than to control cells"}, {"measurement": "NT4 cell binding relative to other cell lines", "setting": "[4]; PANC-1 (low sulfatase expression) versus MCF-7 and MDA-MB-231, flow cytometry", "value": "bind NT4 better than the others; also recorded: higher in cell lines with lower expression of sulfatases"}, {"measurement": "NT4 binding after heparinase treatment", "setting": "[4]; PANC-1, heparinase I/III blend 0.03 IU/ml, 1 h + 1 h at 37°C, 30 min, room temperature, streptavidin–FITC, repeated two times", "value": "much lower than to control cells"}, {"measurement": "half-life (in words)", "setting": "[5]", "value": "long half-life"}, {"measurement": "stability to proteolytic enzymes", "setting": "[5]", "value": "stable to proteolytic enzymes"}, {"measurement": "binding to cells lacking GAG chains", "setting": "PgsA-745 cells", "value": "does not bind"}, {"measurement": "binding to human cancer cell lines", "setting": "[6]", "value": "binds"}, {"measurement": "binding to heparan sulfate", "setting": "[7]", "value": "preferential high-affinity binding"}, {"measurement": "binding to heparin", "setting": "[7]", "value": "preferential high-affinity binding"}, {"measurement": "effect on growth factor-induced migration and invasiveness", "setting": "breast cancer cells", "value": "inhibited"}, {"measurement": "effect on oriented migration", "setting": "[8]", "value": "inhibited"}, {"measurement": "effect on migration and invasion of ECM induced by FGF", "setting": "cancer cells", "value": "inhibition"}]}
